According to patent publication US9233929B2, “Fungicide N-cycloalkyl-N-bicyclimethylene-carboxamide derivatives” (priority 2009, dated 2016):

Assay: logP
Assay type: physicochemical

Structure (SMILES)	logP
Cc1nn(C)c(F)c1C(=S)N(C1CC1)C(C)C1CCCc2ccccc21 (centres unmarked) [I.3, N-cyclopropyl-5-fluoro-1,3-dimethyl-N-[1-(1,2,3,4-tetrahydronaphthalen-1-yl)ethyl]-1H-pyrazole-4-carbothioamide]	4.39
CC(N(C(=O)c1cn(C)nc1C(F)F)C1CC1)C1(O)CCCc2ccccc21 (centres unmarked) [I.10, N-cyclopropyl-3-(difluoromethyl)-N-[1-(1-hydroxy-1,2,3,4-tetrahydronaphthalen-1-yl)ethyl]-1-methyl-1H-pyrazole-4-carboxamide]	2.94
